Where a name gives a salt, the structure may show the parent alone.

The target in this test is T1, Acetylcholinesterase (Mus musculus, UniProt P21836).
T1 sequence (P21836 whole entry): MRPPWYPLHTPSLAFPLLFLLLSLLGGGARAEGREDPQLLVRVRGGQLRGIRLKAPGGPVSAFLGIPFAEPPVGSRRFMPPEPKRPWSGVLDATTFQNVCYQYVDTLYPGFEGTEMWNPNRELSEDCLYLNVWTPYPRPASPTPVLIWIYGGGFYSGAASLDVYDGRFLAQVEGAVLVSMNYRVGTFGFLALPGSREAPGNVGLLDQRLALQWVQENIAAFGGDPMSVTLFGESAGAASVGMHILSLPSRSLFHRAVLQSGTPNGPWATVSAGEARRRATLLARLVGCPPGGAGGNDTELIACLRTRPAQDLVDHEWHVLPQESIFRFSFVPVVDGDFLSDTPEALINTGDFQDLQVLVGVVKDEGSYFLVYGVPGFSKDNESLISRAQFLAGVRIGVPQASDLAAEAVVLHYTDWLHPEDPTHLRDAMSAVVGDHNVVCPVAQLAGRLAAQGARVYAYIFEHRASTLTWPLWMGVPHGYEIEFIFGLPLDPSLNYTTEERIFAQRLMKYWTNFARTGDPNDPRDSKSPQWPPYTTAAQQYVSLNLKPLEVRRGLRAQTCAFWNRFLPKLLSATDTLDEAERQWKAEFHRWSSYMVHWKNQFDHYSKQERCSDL
The test is described as follows: Enzyme Inhibition Assay.
What is called IC50 is the concentration that inhibits the measured activity by half. As to `CN(CCC1CCNCC1)C(=O)c1ccccc1` [(2E)-but-2-enedioic acid; N-methyl-N-[2-(piperidin-4-yl)ethyl]benzamide], the half-maximal inhibitory concentration (IC50) turned out to be 26 µM.

In turn, `Cc1cccc(CN2CCC(CCN(C)C(=O)c3ccccc3)CC2)c1` displayed an IC50 of 0.145 µM.

Take `CN(CCC1CCN(C(=O)c2ccccc2)CC1)C(=O)c1ccccc1` [N-[2-(1-benzoylpiperidin-4-yl)ethyl]-N-methylbenzamide]: the IC50 came out at 52 µM. This IC50 lies about 360-fold higher than the previous one.

`Cc1ccccc1CN1CCC(CCN(C)C(=O)c2ccccc2)CC1` [N-methyl-N-(2-{1-[(2-methylphenyl)methyl]piperidin-4-yl}ethyl)benzamide hydrochloride] had a half-maximal inhibitory concentration (IC50) of 0.77 µM.

Compound `CN(CCC1CCN(CCc2ccccc2)CC1)C(=O)c1ccccc1` [N-methyl-N-{2-[1-(2-phenylethyl)piperidin-4-yl]ethyl}benzamide hydrochloride] displayed an IC50 of 13 µM.

In turn, `CN(CCC1CCN(Cc2ccc([N+](=O)[O-])cc2)CC1)C(=O)c1ccccc1` [N-methyl-N-(2-{1-[(4-nitrophenyl)methyl]piperidin-4-yl}ethyl)benzamide hydrochloride] showed an IC50 of 3.3 µM.

Regarding `CN(CCC1CCN(Cc2cccc([N+](=O)[O-])c2)CC1)C(=O)c1ccccc1` [N-methyl-N-(2-{1-[(3-nitrophenyl)methyl]piperidin-4-yl}ethyl)benzamide hydrochloride], the IC50 worked out at 0.37 µM.

The record behind these values is BindingDB's records for doi:10.1021/jm00169a008 (Tsukuba Research Laboratories, 1990).
